The values that follow come from the METLIN SMRT retention time set (Domingo-Almenara et al. 2019).

The data set in a line: gradient 5% acetonitrile 3 min, to 50% in 2 min, to 85% in 15 min, held 3 min, 100 µL/min. The conditions noted are these: column: Zorbax Extend-C18 2.1 x 50 mm; eluents: water / acetonitrile, 0.1% formic acid. Put shortly: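 Over 3 months, pure standards in mixtures of ~100 molecules were run by HPLC coupled to a quadrupole time-of-flight mass spectrometer in positive and negative ionization mode. The column was a Zorbax Extend-C18 (2.1 × 50 mm, 1.8 μm) at 100 μL/min, eluted with water and acetonitrile each holding 0.1% formic acid, with 40 μL dead and 900 μL dwell volumes. Retention time was determined from adduct peaks chosen by software and checked manually.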
Consider `CCn1nccc1C(=O)NC1CCN(C2=NS(=O)(=O)C(c3ccc(F)cc3)=C2C)CC1`, for which the RP-LC retention time was determined as 788 s.

`CC(=O)N1CCCCCCNC(=O)[C@@H]2CCC[C@@H]21`: the RP-LC retention time came to 624 s. The compound `CC(=O)N1CC(C)Oc2ccc(S(=O)(=O)N3CCC(c4ccncc4)CC3)cc21` (stereo not drawn) registered an RP-LC retention time of 572 s.

In the case of `CC(C)N1C(=O)c2cccnc2Sc2cc(NC(=O)c3cc(Cl)ccc3F)ccc21`, the RP-LC retention time is 973 s.

For `Cc1cc(C(=O)NC(C)C2CC3CCC2C3)c2c(C)noc2n1` (stereo not drawn), the RP-LC retention time was 939 s. In turn, `Cc1ccc(N2CC(C(=O)NCC(=O)N3CCCc4ccccc43)CC2=O)cc1C` (stereo not drawn) gave an RP-LC retention time of 822 s.

Regarding `CCCn1c(-c2cccc(C(=O)NCc3ccccc3C(F)(F)F)c2)nc2cccnc21`, the RP-LC retention time is 911 s. On to `COc1ccc(OC)c(Nc2c(C(=O)N3CCCC3)cnc3nc(C)ccc23)c1`, for which the RP-LC retention time amounted to 601 s.

In the case of `CC1(C(=O)NCc2ccc(F)cc2)CCCN(C(=O)Nc2ccccc2Cl)C1` (stereo not drawn), the RP-LC retention time was determined as 941 s. The value for `Cc1ccc(-c2nc(-c3ccc(S(=O)(=O)N4CCC(C(=O)N5CCCC5)CC4)cc3)no2)cc1` was 1090 s; that for `Cc1cccc(C2CCCN2C(=O)Cn2cc(Cl)cn2)c1` (stereo not drawn) was 866 s; that for `Cc1noc(-c2nc(-c3ccncc3)no2)n1` was 703 s.

`COc1ccc(NC(=O)Cn2nc3nc(N4CCCCC4C)ccn3c2=O)cc1` (stereo not drawn) gave an RP-LC retention time of 755 s. The value for `O=c1c(S(=O)(=O)N2CCCC2)cccn1Cc1cccc(F)c1` was 823 s; that for `COc1ccc(C2(C(=O)N3CCCC(Cn4cnc5cccnc54)C3)CC2)cc1` (stereo not drawn) was 656 s.

With `CCNC(=O)C1CCCN(c2nc3ncn(CC(=O)Nc4ccc(F)c(F)c4)c(=O)c3s2)C1` (stereo not drawn), the RP-LC retention time stood at 670 s.

Regarding `COc1ccc(-c2ccc(=O)n(Cc3nc(-c4ccc(OC(C)C)cc4)no3)n2)cc1`, the RP-LC retention time was found to be 1120 s. On to `O=C(c1cc2ccccc2oc1=O)N1CCCC(c2nnc(-c3ccccc3)o2)C1` (stereo not drawn), for which the RP-LC retention time is 793 s.

In turn, `CCOc1ccc(-c2nc(-c3cccc(-c4ccnn4CC)c3)no2)cc1` came in with an RP-LC retention time of 1300 s. The value for `CC(C)CCNC(=O)CCC(=O)N1CCCn2nc(-c3cn(C)c4ccccc34)cc21` was 778 s; that for `O=C(CCN1C(=O)c2ccccc2C1=O)OCC(=O)c1ccc(Cl)cc1Cl` was 954 s; that for `Cc1nc(OCC(=O)Nc2ccc(Br)cc2F)c2ccccc2n1` was 820 s. Compound `CC1CCCN(S(=O)(=O)c2ccc(-n3cnc(C(=O)N4CCCCCC4)c3)nc2)C1` (stereo not drawn) showed an RP-LC retention time of 920 s.

Turning to `COc1ccc(-c2nc(C3CC(=O)N(c4ccc(C)cc4)C3)no2)c(OC)n1` (stereo not drawn), the RP-LC retention time is 1040 s. As for `CCN1CCN(CCCNC(=O)c2nc(-c3oc4ccccc4c3C)no2)CC1`, the RP-LC retention time is 621 s.

Consider `CCSc1nc(NCC(C)C)c2cnn(CCNC(=O)c3cn(C)nc3OC)c2n1`, for which the RP-LC retention time stood at 749 s.

On to `CCn1c(=O)sc2cc(S(=O)(=O)N3CCC(C(=O)Nc4ccc(F)c(F)c4)CC3)ccc21`, for which the RP-LC retention time came out at 955 s. With `O=C(Nc1cnc(N2CCOCC2)nc1)c1cc(F)cc(F)c1` the figure was 789 s; with `O=C1CN(C(=O)CCC[C@@H]2[C@H]3CCCN4CCC[C@@H](CN2C(=O)c2cccnc2)[C@@H]34)CCN1`, 629 s. `O=C1COc2cc(S(=O)(=O)N3CCCC3C(=O)NCc3ccccc3)c(Cl)cc2N1` (stereo not drawn) yielded an RP-LC retention time of 718 s. With `Cc1nn(CC(=O)NCCc2c[nH]c3ccccc23)c(=O)c2noc(C)c12` the figure was 708 s. `Cc1ccc(NC(=O)N2CCN(c3cc(C)nc(N4CCCC4)n3)CC2)cc1` had an RP-LC retention time of 677 s. Take `Cc1cccc(CN2CCCN(CC(=O)NC(C)CCc3ccccc3)S2(=O)=O)c1` (stereo not drawn): the RP-LC retention time is 1080 s. Consider `CCOc1ccc(-c2csc(Cc3nc(-c4ccc(Cl)cc4)no3)n2)cc1`, for which the RP-LC retention time amounted to 1360 s.

In turn, `Cc1nn(-c2ccccc2)c2ccn(CC(=O)N3CCN(c4ccc(Cl)cc4)CC3)c(=O)c12` displayed an RP-LC retention time of 948 s.

Compound `COCCCNC(=O)c1sc2ncn(CC(=O)N3CC(C)CC(C)C3)c(=O)c2c1C` (stereo not drawn) came in with an RP-LC retention time of 713 s.

Regarding `CC(=O)N1CCc2cc(S(=O)(=O)C(C)CC(=O)N3CCN(c4cccc(C)c4C)CC3)ccc21` (stereo not drawn), the RP-LC retention time stood at 935 s. With `COc1ccc(N2CCN(C(=O)CCC(=O)N3CCCn4nc(C)cc43)CC2)cc1` the figure was 606 s. `CCOc1ccc(S(=O)(=O)N2CC(=O)N(C3CCCC3)C3(CCCCC3)C2)cc1` yielded an RP-LC retention time of 1230 s. As for `O=C(Cc1csc2nc(-c3ccccc3)cn12)N1CCN(c2ccccc2F)CC1`, the RP-LC retention time was 869 s. The value for `O=C(CCn1cnc2cc(-c3noc(-c4ccc5c(c4)OCO5)n3)ccc21)N1CCCC1` was 727 s; that for `Cc1nn(C)c(C)c1S(=O)(=O)N1CCC2(CC1)C(=O)N(C(C)C)C2c1ccccc1` (stereo not drawn) was 837 s; that for `CC(=O)Nc1ccc(CC(=O)O)cc1` was 620 s. The value for `Cc1noc(C)c1CCNC(=O)Cn1c2ccccc2c2cnn(C)c(=O)c21` was 706 s. Compound `CCN1C(=O)c2cccnc2Sc2cc(NC(=O)C(C)(C)C)ccc21` showed an RP-LC retention time of 795 s.

On to `COc1ccc(-c2noc(CC3CCN(C(=O)c4cncc(Br)c4)CC3)n2)cc1`, for which the RP-LC retention time stood at 909 s.

In the case of `CCOC(=O)C1=C(C)NC2=C(C(=O)c3ccccc32)C1c1ccc(OCC)cc1` (stereo not drawn), the RP-LC retention time came out at 718 s. In the case of `c1ccc2c(c1)Nc1ccncc1S2`, the RP-LC retention time is 634 s.

The compound `O=C(NCC1CCCO1)N1CCCn2nc(-c3cccs3)cc2C1` (stereo not drawn) returned an RP-LC retention time of 663 s. The value for `COc1cc(=O)n2c(c1C(=O)Nc1ccc(Br)cc1C)CCCC2` was 757 s; that for `O=C(NCC1CCCO1)c1cc2cccnc2n(Cc2ccccc2F)c1=O` (stereo not drawn) was 932 s. The compound `CCc1nc2cc(-c3noc(-c4ccc(OC)c(F)c4)n3)ccc2o1` showed an RP-LC retention time of 1170 s. The value for `O=C(CCc1ccccc1)Nc1cnn(-c2ncncc2N2CCCC2)c1` was 702 s; that for `O=C(Cc1ccc(Br)cc1)N1CCN(C(=O)c2cc(-c3cccnc3)n[nH]2)CC1` was 638 s.

Compound `Cc1ccc(NC(=O)c2cccc([N+](=O)[O-])c2O)c(C)c1` yielded an RP-LC retention time of 951 s. Compound `CCc1cc(=O)n(CC(=O)NCc2ccc3c(c2)OCO3)c(-c2ccccc2)n1` gave an RP-LC retention time of 1000 s. Regarding `CCCCNC(=O)C1(c2ccc(NC(=O)C(C)C)cc2)CCCCC1`, the RP-LC retention time turned out to be 935 s. The value for `Cc1ccccc1CNC(=O)CN1C(=O)CCCc2cc(S(=O)(=O)N3CCCC3)ccc21` was 916 s; that for `CCOC(=O)N1CCN(S(=O)(=O)CCNC(=O)c2ccccc2)CC1` was 669 s; that for `Cc1ccc(NC(=O)N(C)CCc2noc(COc3ccccc3F)n2)cc1F` was 943 s. With `CCOc1ccc(-c2csc(Cc3nc(-c4ccccc4Cl)no3)n2)cc1` the figure was 1290 s. Take `Cc1ccc(N2CCN(C(=O)c3ccc(CN4CCN(C(C)C)C(=O)C4=O)cc3)CC2)cc1`: the RP-LC retention time is 728 s. The value for `COc1ccccc1N1CCN(c2cc(SCC(=O)Nc3ccc(F)c(Cl)c3)ncn2)CC1` was 1090 s; that for `Cc1cc(C)n(CC(=O)N2CCC(c3nc(-c4ccncc4)no3)C2)n1` (stereo not drawn) was 839 s.

`COC(=O)C1=C(C)NC(C)=C(C(=O)OC2CCCN(Cc3ccccc3)C2)C1c1cccc([N+](=O)[O-])c1` (stereo not drawn): the RP-LC retention time was 844 s.

`Cn1c(=O)c2c(nc(/C=C/c3cccc(Cl)c3)n2C)n(C)c1=O` returned an RP-LC retention time of 1040 s. In turn, `Cc1ccc(NC(=O)N2CCCC(C)(C(=O)NCc3ccc(F)cc3)C2)cc1F` (stereo not drawn) showed an RP-LC retention time of 959 s. `Cc1cc(-c2c(C)sc(C)c2S(=O)(=O)NCC(C)c2ccccc2)n[nH]1` (stereo not drawn) registered an RP-LC retention time of 1140 s. The value for `CCCn1nnc(NCc2ccc(-c3cc(Cl)ccc3Cl)o2)n1` was 1180 s.

For `COc1ccc(-c2c(C)noc2NC(C)=O)cc1S(=O)(=O)Nc1ccc(C)cc1Br`, the RP-LC retention time stood at 832 s. The compound `CCc1nnc2cc(N3CCN(S(=O)(=O)c4ccc(C)cc4)CC3)cnn12` gave an RP-LC retention time of 732 s.

Compound `O=C(c1ccsc1)N1CCC(N(C(=O)Cc2ccccc2)C2CCOCC2)CC1` gave an RP-LC retention time of 774 s. In turn, `COc1ccc(/C=C/c2nn3c(CCc4ccccc4)nnc3s2)cc1` gave an RP-LC retention time of 910 s. With `O=C(NC1(c2nc(-c3ccccc3)no2)CCCCC1)c1ccc2c(c1)OCO2` the figure was 1120 s; with `CC(C)NC(=O)C1CCCN(c2nc3ncn(CC(=O)NC4CCCC4)c(=O)c3s2)C1` (stereo not drawn), 1210 s; with `CSc1ccc(CNC(=O)CSc2nccc(N3CCN(c4cc(C)ccc4C)CC3)n2)cc1`, 921 s. Compound `COC(=O)CNC(=O)N1CCCC1c1ccccc1C` (stereo not drawn) came in with an RP-LC retention time of 737 s. With `COC(=O)c1ccc(-c2nc3cnccn3c2Nc2ccc(C)c(Cl)c2)cc1` the figure was 1050 s.
